Patent publication US8691760B2, “Peptides, pharmaceutical compositions comprising same and uses thereof” (priority 2009, dated 2014)
Several values for one entry are separate records, joined by “and”; a condition that tells them apart may be missing. Equal values may be shown once. Entries after “also recorded” stand apart in the source; their conditions may differ. Read-outs that look alike come from different tables or passages of the source. Ends that are not written are not given here. Peptide text beside a SMILES is read from it.

Key:
rat recombinant IDE = molecular target: T1, rat recombinant IDE (Rattus norvegicus, UniProt P35559); experiment: Fluorometric IDE activity assay (InnoZyme Insulysin/IDE Immunocapture Activity Assay Kit, FRET substrate); type: biochemical; settings: 16 hours at 37° C.; for IC50: 3 repeated experiments
T1 construct: purchased Calbiochem (InnoZyme Insulysin/IDE Immunocapture Activity Assay Kit) CBA079
T1 sequence (P35559 whole entry): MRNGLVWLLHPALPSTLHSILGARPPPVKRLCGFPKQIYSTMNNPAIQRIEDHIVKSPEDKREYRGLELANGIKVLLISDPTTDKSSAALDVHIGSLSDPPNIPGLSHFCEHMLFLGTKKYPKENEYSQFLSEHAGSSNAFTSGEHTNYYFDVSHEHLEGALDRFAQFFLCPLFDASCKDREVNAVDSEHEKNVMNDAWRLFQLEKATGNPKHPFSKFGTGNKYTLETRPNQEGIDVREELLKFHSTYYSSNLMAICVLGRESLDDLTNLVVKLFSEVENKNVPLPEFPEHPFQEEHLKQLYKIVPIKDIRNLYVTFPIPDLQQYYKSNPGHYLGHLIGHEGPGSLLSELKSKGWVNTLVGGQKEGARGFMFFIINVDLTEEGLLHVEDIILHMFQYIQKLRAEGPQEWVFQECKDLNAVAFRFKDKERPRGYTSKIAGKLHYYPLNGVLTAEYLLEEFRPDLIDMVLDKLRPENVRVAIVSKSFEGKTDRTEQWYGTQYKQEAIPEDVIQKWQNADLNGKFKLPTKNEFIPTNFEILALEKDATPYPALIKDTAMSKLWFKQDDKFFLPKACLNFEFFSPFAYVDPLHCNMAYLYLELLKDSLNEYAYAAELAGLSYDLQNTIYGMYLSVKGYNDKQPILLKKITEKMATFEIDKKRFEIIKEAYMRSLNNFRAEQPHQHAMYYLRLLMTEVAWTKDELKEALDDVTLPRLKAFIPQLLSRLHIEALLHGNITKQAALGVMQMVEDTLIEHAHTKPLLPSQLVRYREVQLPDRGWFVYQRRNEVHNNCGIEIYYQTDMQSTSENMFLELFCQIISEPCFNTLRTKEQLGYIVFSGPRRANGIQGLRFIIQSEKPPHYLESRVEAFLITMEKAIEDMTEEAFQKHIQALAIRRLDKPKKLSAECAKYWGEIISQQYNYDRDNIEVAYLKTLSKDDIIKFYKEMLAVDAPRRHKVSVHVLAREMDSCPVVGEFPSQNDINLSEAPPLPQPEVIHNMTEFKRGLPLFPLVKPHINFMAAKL
Experimental: For example, one method that may be used (as described in detail in Example 2, of the Examples section which follows) comprises the use of Insulysin/IDE Immunocapture Activity Assay Kit (available e.g. from InnoZyme™, Calbiochem). Using this kit ELISA plates are first coated with the target enzyme (i.e. IDE) and then the plates are incubated with the synthesized peptide. The enzymatic activity is measured in comparison to wells without the peptide using for example a FRET substrate, Mca-[…]-EDDnp (SEQ ID NO: 11). Cleavage of the scissile amide bond between R and K releases the fluorophore from the quenching molecule, Dnp, resulting in an increase in fluorescence. The increase in fluorescence is measured using an excitation wavelength of 320 nm and an emission wavelength of 405 nm.
In order to measure IDE activity, coating of ELISA plates with the target enzyme (i.e. IDE) was carried out. Next, plates were incubated with the selected synthesized peptide candidate and the enzymatic activity was measured as compared to wells without the peptide candidate. This was carried out using InnoZyme™ Insulysin/IDE Immunocapture Activity Assay Kit from Calbiochem (worldwidewebdotmerckbiosciencesdotcom/Products/pdsdotaspquestionmarkcatnoequal CBA079), a specific and sensitive assay for measuring active IDE in cell lysates, tissue extracts and biological fluids.
Peptide ability to inhibit IDE activity was measured using InnoZyme™ Insulysin/IDE Immunocapture activity assay kit (Calbiochem), an affinity purified polyclonal antibody that recognized human, mouse, and rat insulysin, immobilized on a 96-well plate to capture the enzyme. In brief, rat recombinant IDE (1.14 nM) was incubated with increasing amounts of the candidate inhibitors with doses ranging from 1-100 μM for 16 hours at 37° C. and the activity of captured IDE was measured using a FRET substrate, Mca-[…]-EDDnp (SEQ ID NO: 11). Cleavage of the scissile amide bond between R and K released the fluorophore from the quenching molecule, Dnp, resulting in an increase in fluorescence. The increase in fluorescence was measured using an excitation wavelength of 320 nm and an emission wavelength of 405 nm. As a control, the kit used rat recombinant IDE. IC50 were evaluated following three repeated experiments.
Specifically, rat recombinant IDE (1.14 nM) was incubated with different doses of ADT-21 ([…]) for 16 hours at 37° C. and the activity of the captured insulysin (IDE) was measured using a FRET substrate, Mca-[…]-EDDnp (SEQ ID NO: 11) using Florolog with the following parameters Ex=320 nm, Gm=405 nm, Slit=2, Maximum trails=10, Integration time=1, Target standard deviation=1%.

IDE [1] = molecular target: IDE (Homo sapiens, UniProt P14735); experiment: Blocking of VZV gE interaction with IDE; type: binding; settings: data not shown
[2] = test system: splenocytes obtained from NOD mice; experiment: IFN-γ and IL-17 secretion from splenocytes of ADT21-treated NOD mice (ELISA); type: in vivo, mouse; settings: splenocytes of treated NOD mice (30 weeks), incubated with insulin 48 hours
Experimental: Splenocytes were obtained from NOD mice at the age of 30 weeks. Splenocytes were obtained from both control and ADT21-treated mice. Splenocytes were cultured in T cell medium buffer and plated at 1×10^6 cells per well with and without bovine insulin (Sigma) for 48 hours as previously described [Frenkel et al. (2003) J Immunol 171, 6549-6555].
(§1) Secretions of IFN-γ and IL-17 were measured in 48 hour cultured supernatants by ELISA. Briefly, 96 well plates were coated overnight with 1.5 μg/ml capture antibody (R&D Systems). Supernatants (as described above) were incubated overnight and detection biotinylated antibody (1 μg/ml, R&D Systems) was added for 1 hour. Plates were covered for 30 minutes with avidin-HRP conjugate and […] was used as a substrate for color development. 1M H2SO4 was used as a stop solution. Plates were measured using an ELISA plate reader at 405 nm.

NOD mice [3] = experiment: IGF-1 blood level in NOD mice at 30 weeks (AssayMax mouse IGF1 kit); type: in vivo
From the text: NOD mice were monitored for the blood level of Insulin growth factor 1 (IGF-1) at 30 weeks using AssayMax mouse IGF1 kit.

CD4+ T-cells = experiment: Co-culture of CD4+ T-cells of insulin-immunized NOD mice with spleen cells, IFN-γ and IL-17 ELISA; type: cell-based, mouse; settings: co-culture with 10 μg/ml insulin, with or without 100 nM ADT21, 48 h
Experimental: as §1
NOD mice were immunized subcutaneously (s.c.) with bovine insulin (SIGMA) (n=6-7). 10 days later, CD4+ T-cells were isolated from the spleens of these mice using magnetic beads for negative selection (Miltenyi Biotec). The CD4+ T cells were co-cultured at a concentration of 1×10^6 cells/well in 96-well plates at a ratio of 1:1 with cells obtained from spleens of non immunized NOD mice (n=5). The co-culture was incubated with 10 μg/ml insulin with or without 100 nM ADT21. Supernatants were collect after 48 h of co-culture for cytokine measurements by ELISA for IL-17 and IFN-γ.

NOD mice [4] = experiment: NOD mouse model of insulin dependent diabetes mellitus, nasal administration, blood glucose / diabetes onset; type: in vivo
From the text: (§2) A NOD mouse model has been used as previously described as a model for insulin dependent diabetes mellitus (IDDM) [Atkinson et al., (1990) Diabetes 39, 933-937]. Diabetes in NOD (NOD/ShiLtJ) mice is characterized by insulitis and marked decreases in pancreatic insulin content that occurred in females at about 15 weeks of age. The animals were monitored carefully when receiving the different treatments. Onset of diabetes was marked by moderate glycosuria and by non-fasting plasma glucose higher than 250 mg/dl.
(§3) 12 week old NOD mice were divided into two groups of 10-12 mice each, receiving, every other day, nasal administration of 10 μl of the respective peptide (3.76 μg/kg) or control PBS.
Mice were monitored for blood glucose levels weekly using glucose test strip (Elite, BAYER).

IDE [5] = molecular target: IDE (Rattus norvegicus, UniProt P35559); experiment: In vitro insulin degradation assay (bovine insulin + IDE, insulin ELISA); type: biochemical; settings: ADT21 0.2 nM; insulin 0.87 nM, IDE 1.14 nM, 16 hours at 37° C.
IDE (Rattus norvegicus, UniProt P35559), sequence (P35559 whole entry): as above
Experimental: Insulin (0.87 nM) isolated from bovine pancreas (SIGMA) was incubated for 16 hours at 37° C. in the presence or absence of IDE (1.14 nM) together with the inhibitors (0.002-0.2 nM). The levels of insulin degradation were analyzed using mouse insulin ELISA kit (Mercodia).
In order to verify that ADT21 reduces degradation of insulin by IDE, inventors incubated bovine insulin for 16 hours at 37° C. with or without IDE (1.14 nM) along with ADT21. The levels of insulin degradation were analyzed using a mouse insulin ELISA kit (as described in the “materials and experimental procedures” section above). […] Therefore, inventors speculated that the use of this inhibitor in vivo would delay insulin degradation without preventing IDE activity.

NOD mice [6] = experiment: Degree of insulitis, histological analysis of the pancreas of NOD mice; type: in vivo, mouse; settings: NOD mice at 30 weeks, vs PBS-treated group
From the text: Randomly selected animals from each group (at 30 weeks) were sacrificed and the pancreas of each was examined in a double-blind fashion for insulitis using histological analysis of the pancreas as previously described [Frenkel et al. (2003) J Immunol 171, 6549-6555]. Six to ten islets per mouse were individually scored by two independent observers using a semi-quantitative scale ranging from 0-4 as follows: 0, normal islet with no sign of T cell infiltration; 1, islet associated with perivascular, periductal leukocytic infiltration only; 2, more extensive peri-islet infiltration, but with lymphocytes with less than 25% islet destruction; 3 more than 25% islet destruction; and 4, complete islet destruction.

NOD mice [7] = experiment: Blood insulin levels in NOD mice at 30 weeks (HTRF Insulin assay); type: in vivo, mouse; settings: serum
From the text: as §2, §3
Mice were monitored for insulin blood levels at 30 week using HTRF® Insulin assay (Cisbio bioassays).

[8] = IC50, rat recombinant IDE 1.14 nM, FRET substrate Mca-GGFLRKHGQ-EDDnp

Molecule	IC50 (rat recombinant IDE; [8])	further results
FVNQGSGGSSVLRYDDFHTD [ADT51]	494 nM	–
VLRYDDFHTD [ADT1]	145 nM	–
KLVFDDFAED [ADT5, KLVFDDFAED]	552 nM	–
ITNPVRASVLRYDDFHTD [VZV, reference compound]	450 nM	–
LANFDDLVHSSNN [ADT3]	788 nM	–
HSQGGSGGSSEALYDDLVCG [ADT72]	118 nM	–
ITNPGSGGSSEALYDDLVCG [ADT41]	331 nM	–
VLRYNNFHTD [ADT5N]	–	inhibition of IDE activity (in words) (rat recombinant IDE; rat recombinant IDE 1.14 nM): prevented the inhibition of IDE
ITNPGSGGSSLANFDDLVHSSNN [ADT42]	199 nM	–
EALYLVCG [INS, reference compound]	465 nM	–
HSQGGSGGSSFVQWDDLMN [ADT24]	175 nM	–
KCNTGSGGSSLANFDDLVHSSNN [ADT23]	616 nM	–
DAEFGSGGSSKLVFDDFAED [ADT25]	604 nM	–
VZV gE (24-50): synthetic peptide corresponding to amino acids 24-50 of VZV gE (ITNPVRASVLRYDDFHTDEDKLDTNSV; A peptide sequence derived from VZV gE (24-50))	–	blocking of VZV gE interaction with IDE (IDE [1]): blocked VZV gE interaction with IDE in a concentration dependent manner
EALYDDLVCG [ADT2]	230 nM	–
KCNTGSGGSSVLRYDDFHTD [ADT61]	824 nM	–
N[C@@H](CC(=O)O)C(=O)N[C@@H](CC(=O)O)C(=O)O [ADT-31, DD] (H-Asp-Asp-OH)	–	IC50 (rat recombinant IDE; rat recombinant IDE 1.14 nM, FRET substrate Mca-[…]-EDDnp, read-out: IC50): 736 nM
ITNPGSGGSSKLVFDDFAED [ADT44]	545 nM	–
DAEFGSGGSSEALYDDLVCG [ADT82]	438 nM	–
HSQGGSGGSSVLRYDDFHTD [ADT71]	1390 nM	–
ITNPGSGGSSVLRYDDFHTD [ADT21]	100 nM and 10 to 200 nM	reduction in the levels of IL-17 [2]: 52%; toxic effect related to IGF1 elevation (NOD mice [3]; IGF1 below the basal level (about 1000 ng/ml in wild type mice)): no toxic effect was observed; IGF1 blood level (NOD mice [3]; NOD mice at 30 weeks, control NOD mice 33 ng/ml): 440 ng/mL; release of IFN-γ (CD4+ T-cells; p<0.01): dose dependant reduction; release of IL-17 (CD4+ T-cells; p<0.05): dose dependant reduction; inhibition of IDE activity (in words) (rat recombinant IDE; rat recombinant IDE 1.14 nM): dose dependent and high efficacy in inhibition of IDE activity; also recorded: inhibits IDE activity in a dose dependant manner; age at first conversion to diabetes (NOD mice [4]; NOD mice treated from 12 weeks, every other day, 3.76 μg/kg (94 ng/day), untreated: 15 weeks): 20 weeks; behavioral changes that might indicate toxicity (body weight, eating habits, tail tone, mobility) (NOD mice [4]; NOD mice, every other day): no behavioral changes; animals remaining disease-free at 30 weeks (NOD mice [4]; NOD mice, every other day from 12 weeks, 71% of control mice diabetic): 75%; disease progression (in words) (NOD mice [4]; NOD mice, every other day, vs PBS, P<0.05): significantly delayed; reduction of insulin degradation by IDE (IDE [5]): 400%; infiltration of T cells in pancreatic islets (insulitis) (NOD mice [6]): significantly less infiltration of T cells; blood insulin level relative to reference NOD mice (NOD mice [7]; printed: compared to sick NOD mice): 62%; increase in blood insulin (NOD mice [7]; vs control group): about 400%
